Reference: PubChem BioAssay (NCI)
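These data come from cells grown in 96-well plates and exposed to compound for 48 hours at five concentrations. GI50 = concentration required for 50% inhibition of growth. TGI: total growth inhibition.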

Tests used:
Experiment in all cases: NCI anticancer screen, dose series, 48 h
PC-3 prostate = test system: PC-3 prostate
ACHN renal = test system: ACHN renal
SF-539 CNS = test system: SF-539 CNS
HS 578T breast = test system: HS 578T breast
HCC-2998 colon = test system: HCC-2998 colon
T-47D breast = test system: T-47D breast
MDA-N = test system: MDA-N
SR leukemia = test system: SR leukemia
MCF7 breast = test system: MCF7 breast
SK-OV-3 ovarian = test system: SK-OV-3 ovarian
M14 melanoma = test system: M14 melanoma
HCT-116 colon = test system: HCT-116 colon
BT-549 breast = test system: BT-549 breast
786-0 renal = test system: 786-0 renal
MDA-MB-435 = test system: MDA-MB-435

| SMILES | TGI (PC-3 prostate) [µM] | TGI (ACHN renal) [µM] | TGI (SF-539 CNS) [µM] | TGI (HS 578T breast) [µM] | TGI (HCC-2998 colon) [µM] | TGI (T-47D breast) [µM] | TGI (MDA-N) [µM] | TGI (SR leukemia) [µM] | TGI (MCF7 breast) [µM] | TGI (SK-OV-3 ovarian) [µM] | TGI (M14 melanoma) [µM] | TGI (HCT-116 colon) [µM] | TGI (BT-549 breast) [µM] | TGI (786-0 renal) [µM] | TGI (MDA-MB-435) [µM] | GI50 (PC-3 prostate) [µM] | GI50 (ACHN renal) [µM] | GI50 (HCC-2998 colon) [µM] | GI50 (M14 melanoma) [µM] |
| --- | --- | --- | --- | --- | --- | --- | --- | --- | --- | --- | --- | --- | --- | --- | --- | --- | --- | --- | --- |
| CC(Oc1ccc(Cl)cc1Cl)C(=O)NN1C(=O)CC(=O)NC1=S (stereo not given) | > 100 | > 100 | > 100 | > 100 | > 100 | > 100 | > 100 | > 100 | > 100 | > 100 | > 100 | > 100 | > 100 | > 100 | > 100 |  |  |  |  |
| CC(C)(C)c1cc(C(C)(C)C)c(SSc2c(C(C)(C)C)cc(C(C)(C)C)c(O)c2O)c(O)c1O | 28.5 | 26.6 |  | > 100 |  | 27.2 | 23.9 | 10.4 | 27.5 |  | 25.2 | 23.2 | 28.3 | 19.2 | 17.2 |  |  |  |  |
| COc1cc(C2c3cc4c(cc3[C@@H](Nc3cnc5ccccc5c3)C3COC(=O)[C@H]23)OCO4)cc(OC)c1O (stereo not given in full) |  |  | 0.82 |  | 2.24 |  |  |  | > 31.7 | 6.18 |  | 2.26 |  |  |  |  |  |  |  |
| O=C(Cn1c(C(=O)/C=C/c2ccc(Cl)c(Cl)c2)nc2ccccc21)c1ccccc1 | > 100 | 93.5 | 48.2 | 56.1 | 35.8 | > 100 | 47.2 | 80 | 82.2 | > 100 | 72.2 | 35.1 | 99.3 | 44 | 42.4 |  |  |  |  |
| COc1ccc2[nH]c(=O)cc(C)c2c1[N+](=O)[O-] |  | > 100 | > 100 |  | > 100 |  |  |  |  | > 100 | > 100 | > 100 |  | > 100 |  |  |  |  |  |
| COc1ccc(C(=O)c2[nH]c(Nc3cc(C)ccn3)c(C(=S)Nc3ccccc3)c2N)cc1 | > 100 | 97.4 | 35.8 |  | 37.4 | > 100 | 56.2 | > 100 | 75.2 | 47 | 42.5 | 50.6 | 42.5 | 49.7 | 59.6 |  |  |  |  |
| CC1(c2cccc(C(F)(F)F)c2)CC(c2cccc(C(F)(F)F)c2)=C(C#N)C(=C(C#N)C#N)N1 (stereo not given) | 34.7 | 31 | 34.9 | 43.2 | 31.8 | 41.7 | 33.6 | 30 | 34.9 | 29.6 | 37.4 | 29.2 | 40.9 | 31.2 | 32.6 |  |  |  |  |
| CC1=NN(c2ccccc2Cl)C2(C1)C(Cl)C(=O)N2c1nc2ccccc2s1 (stereo not given) | > 100 | > 100 |  | > 100 | > 100 | > 100 | > 100 | 49.6 | > 100 | > 100 | > 100 | > 100 | > 100 | > 100 | > 100 |  |  |  |  |
| Nc1nc(N)c2ncn(Cc3ccccc3CO)c2n1 | > 100 | > 100 | > 100 | > 100 |  | > 100 |  | > 100 | > 100 | > 100 | > 100 | > 100 | > 100 | > 100 | > 100 |  |  |  |  |
| COC(=O)/C=C1\C(=O)Nc2ccc(Br)cc21 | 2.82 | 3.36 |  | > 34.4 | 4.58 | 5.6 |  | 1.56 | 3.01 | 10.1 | 6.03 | 2.64 | 3.88 | 3.05 | 4.76 |  |  |  |  |
| COc1cnc2oc3ccc(O)cc3c2c1-c1ccccc1 | > 100 | > 100 | > 100 | > 100 | 92.1 | > 100 |  |  | > 100 | > 100 | 39.8 | 45 | > 100 | > 100 | > 100 |  |  |  |  |
| O=c1c2cc([N+](=O)[O-])ccc2[nH]n1Cc1ccccc1Cl | > 100 | > 100 | > 100 | > 100 | > 100 |  | > 100 | > 100 |  |  | > 100 | > 100 |  | > 100 | > 100 |  |  |  |  |
| CS(C)(=O)=Nn1c(=O)n2n(c1=O)[C@H]1CC[C@@H]2C1 | > 100 | > 100 | > 100 | > 100 |  | > 100 | > 100 | > 100 | > 100 | > 100 | > 100 |  |  |  | > 100 |  |  |  |  |
| COc1cc2c(/C=C3/C(=O)Nc4cc(C)c(O)cc43)c(Cl)[nH]c2cc1C | 21.9 | 17.9 | 5.93 | 7.35 |  | 18.2 |  | 2.05 | 13.4 | 8.32 | 5.89 | 8.84 | 45.3 | 8.91 | 1.22 |  |  |  |  |
| O=C1C=CC2(C=C1)O[C@H](CCc1ccccc1)[C@@H](CCc1ccccc1)O2 | > 100 | > 100 | > 100 | > 100 |  | > 100 | > 100 | > 100 | > 100 | > 100 | > 100 | > 100 | > 100 | > 100 | 76.1 |  |  |  |  |
| C=CCn1c(C)nc2cc(Nc3nc(N4CCCC4)nc4nc[nH]c34)ccc21 | > 100 | > 100 |  |  | > 100 |  |  |  |  |  | > 100 |  |  |  |  | > 100 | > 100 | > 100 | 29.6 |
| COc1ccc(/C=C2\CC3C4CC=C5C[C@@H](N6CCCC6)CC[C@]5(C)C4CC[C@]3(C)[C@H]2O)cc1OC (stereo not given in full) | 12.6 | 16 | 15.1 | 26.9 | 11.7 | 26.6 | 14.9 |  | 14.8 | 17.5 | 16.8 | 15.8 | 16.5 | 11.1 | 14.3 |  |  |  |  |
| Cc1c2cnccc2c(C)c2c1c1ccccc1n2CCCCCCCl |  |  | > 50 |  | > 50 |  |  |  | > 50 | > 50 |  | > 50 |  |  |  |  |  |  |  |
| Nc1nc2cc(COc3ccc(C(=O)O)cc3)ccc2nc1-c1ccccc1 | > 10 | > 10 | > 10 | > 10 | > 10 | > 10 | > 10 | > 10 | > 10 | > 10 | > 10 |  |  |  | > 10 |  |  |  |  |
| COc1ccc(C)cc1NC(=S)N/N=C/c1ccco1 | > 100 | > 100 | > 100 | > 100 | > 100 | > 100 | 68.7 | > 100 | > 100 | > 100 | > 100 | > 100 | > 100 | > 100 | 92.2 |  |  |  |  |
| O=C1Nc2ccccc2C1(O)Cc1ccccn1 (stereo not given) | > 100 | > 100 |  | > 100 | > 100 | > 100 | > 100 | > 100 | > 100 | > 100 | > 100 | > 100 | > 100 | > 100 | > 100 |  |  |  |  |
| O=C1Sc2sc(=S)sc2SC1c1ccccc1 (stereo not given) |  |  | > 100 |  | > 100 |  |  |  | > 100 | > 100 |  | > 100 |  |  |  |  |  |  |  |
| C=C1C(=O)OC2/C=C(CO)/C=C\C3OC3(C)CC(OC(=O)/C(C)=C/COC(C)=O)C12 (stereo not given) | 21.6 | 9.16 | 4.39 | 11.8 | 28.8 | 7.53 | 4.13 | 13.7 | 16.4 | 31.7 | 5.64 | 2.83 | 3.25 | 4.36 | 4.32 |  |  |  |  |
| COc1cc2c(cc1OCCCN1CCOCC1)N=C[C@@H]1CCCN1C2=O | 72.4 | 92 | 22.3 | > 100 |  |  | 97.5 | 39.8 | > 100 | 87.5 | 29.1 | 54.3 | > 100 | > 100 | 31 |  |  |  |  |
| COc1cccc(/C=N/[N+](C)(C)C)c1O | > 10 | > 10 | > 10 | > 10 | > 10 | > 10 | > 10 |  | > 10 | > 10 | > 10 | > 10 | > 10 | > 10 | > 10 |  |  |  |  |
